# Test results taken from US9757332B2, “Gel-like composition having high ubiquinol content” (UHA Mikakuto Co., Ltd., priority 2013, dated 2017).
# Test: Observation of particles under optical microscope (Test Example I-4)
# Format: physicochemical
# Settings: magnification of 400 times
smiles,measurement,value
"COc1c(O)c(C)c(C/C=C(\C)CC/C=C(\C)CC/C=C(\C)CC/C=C(\C)CC/C=C(\C)CC/C=C(\C)CC/C=C(\C)CC/C=C(\C)CC/C=C(\C)CCC=C(C)C)c(O)c1OC [ubiquinol powder (Kaneka QH), ubiquinol]",crystals observed under optical microscope,irregular crystal structure
